Experimental data: publication PMC9457600, “Synthesis, Leishmanicidal, Trypanocidal, Antiproliferative Assay and Apoptotic Induction of (2-Phenoxypyridin-3-yl)naphthalene-1(2H)-one Derivatives” (Molecules, 2022)

Assays:
K562 cell line = test: Annexin V-FITC/PI flow cytometry apoptosis assay K562; assay type: cell-based, human; conditions: 24 h
Method: Cell death was assessed after 24 h incubation with compounds 18 and 22. Apoptosis was analyzed by flow cytometry using annexin V-FITC and propidium iodide (PI). Early apoptosis was defined by annexin V-FITC expression and, necrosis by PI expression, late apoptosis by coexpression of annexin V/PI. Doxorubicin and quercetin were used as positive controls. The results of a typical flow cytometry analysis of both compounds are illustrated in Figure 2 and Figure 3. An increase in early apoptosis and late apoptosis was observed; necrosis was less predominant. The results are summarized in Tables S1 and S2 (Supplementary Materials). The expression of annexin V was different depending on the compound used. K562, A549 cell lines were treated as described by the manufacturer (Santa Cruz Biotechnology), washed, and resuspended in annexin V binding buffer (0.01 M HEPES, 0.14 M NaCl, and 2.5 mM CaCl2) with the subsequent incubation of annexinV-FITC and then PI. An Epics XL cytometer (Beckman Coulter, Indianapolis, IN, USA) was used for the analysis. Untreated cells were the negative controls, and doxorubicin (Dox) (1 μM), and quercetin (QC) (50 μM) were the positive controls. Early apoptosis refers to annexin V expression, late apoptosis, the coexpression of annexin V and PI, and necrosis the sole expression of PI. […] The experiments were performed as described before. To avoid the unwanted effects of DMSO, the concentrations of the compounds were never higher than 100 μM.

K562 = test: MTS antiproliferative assay K562; assay type: cell-based, human; conditions: for IC50: 72 h of incubation
Excerpt: (§1) The cell lines used were acquired from the American Type Culture Collection (ATCC), CCRF-CEM (T lymphoblastic leukemia), K562 ([…]), U2OS (osteosarcoma), HCT116 (colon carcinoma), A549 (lung adenocarcinoma) and HCT116p53−/− (HCT116 cell line mutated in p53) Horizon Discovery Ltd., (Waterbeach, Cambridge, United Kingdom).
(§2) In our laboratory, IMTM, we generated the daunorubicin-resistant subline of CCRF-CEM cells (CEM-DNR bulk) and paclitaxel-resistant subline K562-TAX, as described previously. […] Both ABC transporters are involved in drug resistance. As a control, human fibroblasts MRC-5 and BJ cell lines were used. […] Adherent cells were passaged using PBS containing 0.25% trypsin plus 0.01% EDTA (ethylenediamine tetraacetic acid) every 2–3 days.
(§3) The antiproliferative activity of compounds was determined using a standard 3-(4,5-dimethylthiazol-2yl)-5-(3-carboxymethoxyphenyl)-2-(4-sulfophenyl)-2H-tetrazolium (MTS) reduction assay on a robotic high throughput screening platform (HighResBio, Boston, MA, USA) following treatment of cells for 3–7 days. The IC50 values were calculated from the appropriate dose–response curves with Dotmatics software (San Diego, CA, USA).

HCT-116 = test: MTS antiproliferative assay HCT116; assay type: cell-based; conditions: Homo sapiens, 72 h of incubation
Excerpt: as §1, §2, §3

BMDM macrophages = test: MTT cytotoxicity on BMDM macrophages; assay type: cell-based; conditions: Mus musculus, 72 h
Excerpt: T. cruzi epimastigotes MHOM/VE/92/YBM venezuelan strain were used to test the anti T. cruzi in vitro studies. The strain was maintained in a modified LIT medium with 10% fetal bovine serum (FBS). Mouse bone marrow was used to obtain BMDM macrophages. Mouse fibroblast-conditioned medium L-929 was used for the differentiation and maintenance of BMDM macrophages. We evaluated through a colorimetric method the effect of compounds 8–23 on the promastigotes of L. brasiliensis. Briefly, 96-well plates were used, where 2 × 10^6 parasites/mL were seeded. A concentration of 50 μM was used for each compound and an incubation time of 96 h at 29 °C. 3-(4,5-dimethylthiazol-2-yl)-2,5-diphenyl tetrazolium bromide (MTT) 1 μg/mL was added and incubated in darkness for 4 h, acidic isopropanol (4N) was added and the plate was read at 570 nm in a spectrophotometer Synergy HT (Biotek). Miltefosine was used as a reference drug. The EC50 calculation of the selected compound was performed using growth curves. Direct counting was used to monitor the proliferation of parasites, three independent experiments were performed for each concentration of the compounds evaluated. The in vitro evaluations of compounds toxicity by MTT in VERO and BMDM cells follow a methodology described above with some modifications. The selectivity index was calculated with SI = CC50/EC50, where CC50 was the maximum concentration range of compounds 10, 21–23 used to evaluate cytotoxicity in VERO and BMDM cells. The trypanocidal activity of compounds 8–23 was evaluated on the viability of T. cruzi epimastigotes through a colorimetric method adapted with minor modifications. 2 × 10^6 parasites/mL were seeded in a 96-well plate, adding 50 μM of each derivative dissolved in DMSO (final concentration remained below 1%). The plate was incubated for 96 h at 29 °C. Then, 1 μg/mL of 3-(4,5-dimethylthiazol-2-yl)-2,5-diphenyl tetrazolium bromide (MTT) was added and incubated in darkness for 4 h. After this time, acidic isopropanol (4N) was added and the plate was read at 570 nm in a spectrophotometer Synergy HT (Biotek). Benznidazole was used as a reference drug. The in vitro evaluations of compounds toxicity by MTT in VERO and BMDM cells follow a methodology described above with some modifications. Cells were counted in suspension and seeded at 20 × 10^3 cells/well. The test was carried out in triplicate on 96-well microplates in different concentrations: 50 μM, 100 μM, 200 μM and 300 μM, untreated cells and reference drug (benznidazole) controls.

CEM-DNR = test: MTS antiproliferative assay CEM-DNR; assay type: cell-based; conditions: Homo sapiens, 72 h of incubation, daunorubicin-resistant
Excerpt: as §1, §2, §3

A549 = test: MTS antiproliferative assay A549; assay type: cell-based, human; conditions: 72 h of incubation
Excerpt: as §1, §2, §3

[1] = tested on: promastigotes of Leishmania (V.) braziliensis strain MHOM/CO/87/UA301; test: MTT viability of L. braziliensis promastigotes; assay type: cell-based
Method: Promastigotes of Leishmania (V.) braziliensis strain MHOM/CO/87/UA301 were isolated from footpad lesions in Balb/C mice previously infected. In the process of maintenance and differentiation of the parasites, the LTI medium (tryptose 15 g/L, yeast extract 5 g/L, liver extract 2 g/L, hemin-NaOH 0.02 g/L, glucose 4 g/L, NaCl 9 g/L, KCl 0.4 g/L Na2HPO4, 7.5 g/L at pH 7.4) supplemented with 10% fetal calf serum and maintained at 29 °C was used.
Briefly, 96-well plates were used, where 2 × 10^6 parasites/mL were seeded. A concentration of 50 μM was used for each compound and an incubation time of 96 h at 29 °C. 3-(4,5-dimethylthiazol-2-yl)-2,5-diphenyl tetrazolium bromide (MTT) 1 μg/mL was added and incubated in darkness for 4 h, acidic isopropanol (4N) was added and the plate was read at 570 nm in a spectrophotometer Synergy HT (Biotek). Miltefosine was used as a reference drug. The EC50 calculation of the selected compound was performed using growth curves. Direct counting was used to monitor the proliferation of parasites, three independent experiments were performed for each concentration of the compounds evaluated. The in vitro evaluations of compounds toxicity by MTT in VERO and BMDM cells follow a methodology described above with some modifications [60].

HCT116p53−/− = test: MTS antiproliferative assay HCT116p53-/-; assay type: cell-based; conditions: Homo sapiens; 72 h of incubation
Excerpt: as §1, §2, §3

K562-TAX = test: MTS antiproliferative assay K562-TAX; assay type: cell-based, human; conditions: 72 h of incubation, paclitaxel-resistant
Excerpt: as §1, §2, §3

U2OS = test: MTS antiproliferative assay U2OS; assay type: cell-based; conditions: Homo sapiens, 72 h of incubation
Excerpt: as §1, §2, §3

CCRF-CEM = test: MTS antiproliferative assay CCRF-CEM; assay type: cell-based; conditions: Homo sapiens, 72 h of incubation
Excerpt: as §1, §2, §3

IC50 (K562): 3.91 ± 0.14 µM | IC50 (K562; Homo sapiens, K562, 72 h): 3.91 to 4.33 µM | IC50 (HCT-116): 13 ± 3.61 µM | IC50 (A549): 9.74 ± 1.28 µM | IC50 (A549; Homo sapiens, A549, 72 h): 9.64 to 9.74 µM | IC50 (HCT116p53−/−): 33.9 ± 5.63 µM | IC50 (K562-TAX): 21.4 ± 4.08 µM | IC50 (K562-TAX; Homo sapiens, K562-Tax, 72 h): > 21.4 µM | IC50 (U2OS): 8.1 ± 1.71 µM | IC50 (CCRF-CEM): 5.23 ± 0.3 µM
SMILES: COc1ccc2c(c1)CC/C(=C\c1cccnc1Oc1ccc(Cl)cc1)C2=O [Compound 22, (E)-2-{[2-(4-Chlorophenoxy)pyridin-3-yl]methylene}-3,4-dihydro-6-methoxynaphthalen-1(2H)-one]
AV+/IP+ (late apoptosis) (K562 cell line; K562, 5 µM): 1.85% | AV+/IP- (early apoptosis) (K562 cell line; K562, 5 µM): 20.90% | AV-/IP+ (necrosis) (K562 cell line; K562, 5 µM): 0.44% | AV+/IP+ (late apoptosis) (K562 cell line; K562, 10 µM): 77.70% | AV+/IP- (early apoptosis) (K562 cell line; K562, 10 µM): 21.80% | AV-/IP+ (necrosis) (K562 cell line; K562, 10 µM): 0.29% | annexin V-FITC expression (K562 cell line; K562, 10 µM): higher than 50% | times higher cytotoxicity against K562 than K562-TAX (K562; ratio of IC50 values): 5.5 times | EC50 (BMDM macrophages): 468 µM | IC50 (CEM-DNR): 22.5 ± 4.77 µM | EC50 ([1]; 72 h, promastigotes): 12.4 ± 1.15 µM | SIB/Lb selectivity index on L. braziliensis/BMDM ([1]; SI = CC50/EC50): 38
